# Experimental data as given in patent US8258130B2 (Sanofi, priority 2007, dated 2012).
# Tests used:
# rat = rat model; cited from earlier work
# guinea pig = guinea pig model; cited from earlier work
# PGDS = conditions: cited from earlier work
# human h-PGDS = human h-PGDS (Homo sapiens, UniProt O60760); assay: Enzyme Immunoassay (EIA) method, inhibition of hematopoietic PGD2 synthase; type: biochemical; conditions: EIA assay, PGD2 formed from PGH2 by human h-PGDS
# Experimental: Assay 2: Enzyme Immunoassay (EIA) Method
# • a. Preparation of 0.1M K2HPO4/KH2PO4 buffer (pH 7.4) • Prepare 0.1 M KH2PO4 from 1M KH2PO4 (Sigma, Cat# P-8709) • Prepare 0.1 M K2HPO4 from powder of K2HPO4 (Fisher, BP363-500) • Mix 0.1 M K2HPO4 with 0.1 M KH2PO4 to adjust pH to 7.4. • b. Preparation of 0.5% γ-globulin • Add 0.1 g of γ-globulin (Sigma, Cat# G-5009) to 20 mL 0.1 M K2HPO4/KH2PO4 buffer (pH 7.4) and make 1-mL/vial aliquots and store in −80° C. • c. Preparation of 100 mM GSH • Add 307 mg of GSH (Sigma, Cat# G-6529) to 10 mL 0.1 M K2HPO4/KH2PO4 buffer (pH 7.4) and store at −80° C. • d. Preparation of Reaction buffer: • 198 mL of 0.1M K2HPO4/KH2PO4 buffer (pH 7.4) • 2 mM GSH—Prepared from 100 mM GSH • 0.4 g Glycerol • 2 mL of 0.5% γ-globulin • Add 0.4 g of glycerol and 2 mL of 0.5% γ-globulin to 198 mL of 0.1 M K2HPO4/KH2PO4 • buffer (pH7.4). • Add 0.4 mL of 100 mM GSH to 19.6 mL reaction buffer before the assay (enough for two 96-well plates). • e. Preparation of FeCl2/citric acid stopping solution: (8 mg/mL FeCl2, 0.1 M citric acid) • Add 40 mg fresh FeCl2 (IGN, Cat# 158046) to 5 mL 0.1 M citric acid (Sigma, Cat# C0759). • f. Preparation of MOX reagent: • 10% EtOH—Add 1 mL of EtOH to 9 mL of ultra pure H2O • Dissolve 0.1 g of methoxyl amine (Cayman, Cat# 400036/) in 10% EtOH (10 mL). • Add 0.82 g of sodium acetate (Cayman, Cat#400037) to MOX solution and dissolve. II. Materials and Method • Dimethylsulfoxide (DMSO; Sigma; Cat# D2650) • Prostaglandin D2-MOX express EIA kit (Caymen Chemical, Catalog No. 500151)
# Before the assay, cool down 10 mL of acetone in polypropylene tubes and empty 96 well plates in ice. All the procedures except compound dilution are performed on ice.
# • 1. Dilute compound in DMSO
# • 2. Dilute 2 μL of each above concentration of compound to 38 μL of reaction buffer in 96-well plates and mix. IV. Enzyme and Substrate Solution Preparation • 1 Preparation of 0.39 ng/μL enzyme solution (0.35 ng/μL at final after compound addition). • Mix 4 μL of 4 mg/mL human h-PGDS with 396 μL of reaction buffer (to give enzyme concentration 40 μg/mL). Add 46.8 μL of 40 μg/mL h-PGDS to 4.753 mL of reaction buffer to give a total volume of 4.8 mL • 2. Preparation of Substrate Solution (PGH2): Add 0.375 mL of 0.1 mg/mL of PGH2 to 1.625 mL acetone. V. Enzyme Reaction: • 1. Add 60 μL of enzyme solution to compound well and positive control (without compound) in U-bottom polypropylene plate on ice. • 2. Add 60 μL of reaction buffer and 6.6 μL of 5% DMSO in reaction buffer into negative control wells in the plate. • 3. Add 6.6 μL of diluted compound in reaction buffer to the compound wells and mix. • 4. Add 6.6 μL of 5% DMSO in reaction buffer to the positive control well. • 5. Incubate the plate in ice for at least 30 min. • 6. Add 20 μL of substrate (PGH2) solution to compound, negative and positive control wells in the U-bottom 96 well plate on ice. • 7. Dry the plate in cold room for about 25-28 min. • 8. Pipette 45 μL of enzyme solution (above) into 96-wells with dried PGH2 and mix 3 times. Incubate on the ice for 1 min. • 9. Add 45 μL of FeCl2 solution into each wells and mix. • 10. Add 90 μL of MOX solution and mix. • 11. Incubate for 30 min at 60° C. • 12. Dilute the samples 2500× with EIA buffer. VI. EIA Assay • Perform the assay according to the procedure in EIA kit provided by Cayman. Total PGD2 levels (pg/mL) were determined in the samples by EIA kits (Caymen Chemical, Catalog No. 500151) Calculate Amount of PGD2 as Below • Calculated % Positive control according to the equation below; % Positive control=(Compound value−Negative control)/(Positive value−Negative control value)×100. […]
# Sequence of human h-PGDS (O60760 whole entry): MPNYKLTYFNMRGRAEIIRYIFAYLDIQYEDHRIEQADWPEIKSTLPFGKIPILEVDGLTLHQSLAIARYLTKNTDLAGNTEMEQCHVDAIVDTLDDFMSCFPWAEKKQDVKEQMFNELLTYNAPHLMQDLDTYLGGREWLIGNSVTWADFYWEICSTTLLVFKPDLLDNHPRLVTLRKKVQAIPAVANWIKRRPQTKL
SMILES,IC50 (human h-PGDS),also measured
c1ccc(C(OC2CCN(CCCc3nn[nH]n3)CC2)c2ccccc2)cc1 [HQL-79],,antiasthmatic effect (rat): antiasthmatic; antiasthmatic effect (guinea pig): antiasthmatic; PGDS inhibition (PGDS): weak PGDS inhibitor
"Cc1nc(-c2cccc(F)c2)ncc1C(=O)NN1CCc2ccccc21 [Example 106, 2-(3-Fluoro-phenyl)-4-methyl-pyrimidine-5-carboxylic acid (2,3-dihydro-indol-1-yl)-amide]",23 nM,
"Cc1cn(NC(=O)c2cnc(-c3cccnc3)nc2)c2ccc(F)cc12 [Example 6, 2-Pyridin-3-yl-pyrimidine-5-carboxylic acid (5-fluoro-3-methyl-indol-1-yl)-amide]",10 nM,
"Cc1nc(-c2ccccn2)ncc1C(=O)NN1CCc2ccccc21 [Example 110, 4-Methyl-2-pyridin-2-yl-pyrimidine-5-carboxylic acid (2,3-dihydro-indol-1-yl)-amide]",3 nM,
"COc1cccc(-c2ncc(C(=O)NN3CC(C)=NNC3=O)cn2)c1 [Example 59, 2-(3-Methoxy-phenyl)-pyrimidine-5-carboxylic acid (6-methyl-3-oxo-2,5-dihydro-3H-[1,2,4]triazin-4-yl)-amide]",175 nM,
"Cc1nc(-c2ccccn2)ncc1C(=O)Nn1cc(C)c2cc(F)ccc21 [Example 3, 4-Methyl-2-pyridin-2-yl-pyrimidine-5-carboxylic acid (5-fluoro-3-methyl-indol-1-yl)amide]",7 nM,
"O=C(NN1CCN(C(=O)OCc2ccccc2)CC1=O)c1cnc(-c2ccccc2)nc1 [Example 20, 3-Oxo-4-[(2-phenyl-pyrimidine-5-carbonyl)-amino]-piperazine-1-carboxylic acid benzyl ester]",104 nM,
